Results as given in patent publication US20140166543A1, “SYSTEM AND PROCESS FOR RECOVERING BITUMEN FROM OIL SANDS” (Shell Oil Company, priority 2012, published 2014).

Assay: Viscosity of crude blended with dimethyl sulfide (rheometer)
Assay type: physicochemical
Description: The quality of dimethyl sulfide as an oil recovery agent based on the crude oil viscosity lowering properties of dimethyl sulfide was evalulated. Three crude oils having widely disparate viscosity characteristics—an African Waxy crude, a Middle Eastern asphaltic crude, and a Canadian asphaltenic crude—were blended with dimethyl sulfide. A control sample of each crude was prepared containing no dimethyl sulfide, and samples of each crude were prepared and blended with dimethyl sulfide to prepare crude samples containing increasing concentrations of dimethyl sulfide. Each sample of each of the crudes was heated to 60° C. to dissolve any waxes therein and to permit weighing of a homogeneous liquid, weighed, allowed to cool overnight, then blended with a selected quantity of dimethyl sulfide. The samples of the crude/dimethyl sulfide blend were then heated to 60° C. and mixed to ensure homogeneous blending of the dimethyl sulfide in the samples. Absolute (dynamic) viscosity measurements of each of the samples were taken using rheometer and closed cup sensor assembly. Viscosity measurements of each of the samples of the West African waxy crude and the Middle Eastern asphaltic crude were taken at 20° C., 40° C., 60° C., 80° C., and then again at 20° C. after cooling from 80° C., where the second measurement at 20° C. is taken to measure the viscosity without the presence of waxes since wax formation occurs slowly enough to permit viscosity measurement at 20° C. without the presence of wax. Viscosity measurements of each of the samples of the Canadian asphaltenic crude were taken at 5° C., 10° C., 20° C., 40° C., 60° C., 80° C., The measured viscosities for each of the crudes are shown in Tables 3, 4, and 5 below.

Viscosity of Topped Canadian asphaltenic Crude (DMS 1.43 wt. %, 20° C.): 212525 mPa s | Viscosity of Topped Canadian asphaltenic Crude (DMS 1.43 wt. %, 40° C.): 14721 mPa s | Viscosity of Topped Canadian asphaltenic Crude (DMS 1.43 wt. %, 60° C.): 2209 mPa s | Viscosity of Topped Canadian asphaltenic Crude (DMS 1.43 wt. %, 80° C.): 538 mPa s | Viscosity of Topped Canadian asphaltenic Crude (DMS 2.07 wt. %, 20° C.): 134880 mPa s | Viscosity of Topped Canadian asphaltenic Crude (DMS 2.07 wt. %, 40° C.): 10523 mPa s | Viscosity of Topped Canadian asphaltenic Crude (DMS 2.07 wt. %, 60° C.): 1747 mPa s | Viscosity of Topped Canadian asphaltenic Crude (DMS 2.07 wt. %, 80° C.): 427 mPa s | Viscosity of Topped Canadian asphaltenic Crude (DMS 4.87 wt. %, 20° C.): 28720 mPa s | Viscosity of Topped Canadian asphaltenic Crude (DMS 4.87 wt. %, 40° C.): 3235 mPa s | Viscosity of Topped Canadian asphaltenic Crude (DMS 4.87 wt. %, 60° C.): 985 mPa s | Viscosity of Topped Canadian asphaltenic Crude (DMS 4.87 wt. %, 80° C.): 328 mPa s | Viscosity of Topped Canadian asphaltenic Crude (DMS 8.01 wt. %, 20° C.): 5799 mPa s | Viscosity of Topped Canadian asphaltenic Crude (DMS 8.01 wt. %, 40° C.): 982 mPa s | Viscosity of Topped Canadian asphaltenic Crude (DMS 8.01 wt. %, 60° C.): 275 mPa s | Viscosity of Topped Canadian asphaltenic Crude (DMS 8.01 wt. %, 80° C.): 106 mPa s | Viscosity of Topped Canadian asphaltenic Crude (DMS 9.80 wt. %, 20° C.): 2760 mPa s | Viscosity of Topped Canadian asphaltenic Crude (DMS 9.80 wt. %, 40° C.): 571 mPa s | Viscosity of Topped Canadian asphaltenic Crude (DMS 9.80 wt. %, 60° C.): 173 mPa s | Viscosity of Topped Canadian asphaltenic Crude (DMS 9.80 wt. %, 80° C.): 73 mPa s | Viscosity of Topped Canadian asphaltenic Crude (DMS 14.81 wt. %, 5° C.): 1794 mPa s | Viscosity of Topped Canadian asphaltenic Crude (DMS 14.81 wt. %, 10° C.): 1155 mPa s | Viscosity of Topped Canadian asphaltenic Crude (DMS 14.81 wt. %, 20° C.): 548 mPa s | Viscosity of Topped Canadian asphaltenic Crude (DMS 14.81 wt. %, 40° C.): 159 mPa s | Viscosity of Topped Canadian asphaltenic Crude (DMS 14.81 wt. %, 60° C.): 64 mPa s | Viscosity of Topped Canadian asphaltenic Crude (DMS 14.81 wt. %, 80° C.): 32 mPa s | Viscosity of Topped Canadian asphaltenic Crude (DMS 19.78 wt. %, 20° C.): 188 mPa s | Viscosity of Topped Canadian asphaltenic Crude (DMS 19.78 wt. %, 40° C.): 69 mPa s | Viscosity of Topped Canadian asphaltenic Crude (DMS 19.78 wt. %, 60° C.): 33 mPa s | Viscosity of Topped Canadian asphaltenic Crude (DMS 19.78 wt. %, 80° C.): 19 mPa s | Viscosity of Topped Canadian asphaltenic Crude (DMS 29.88 wt. %, 5° C.): 113 mPa s | Viscosity of Topped Canadian asphaltenic Crude (DMS 29.88 wt. %, 10° C.): 81 mPa s | Viscosity of Topped Canadian asphaltenic Crude (DMS 29.88 wt. %, 20° C.): 51 mPa s | Viscosity of Topped Canadian asphaltenic Crude (DMS 29.88 wt. %, 40° C.): 22 mPa s | Viscosity of Topped Canadian asphaltenic Crude (DMS 29.88 wt. %, 60° C.): 13 mPa s | Viscosity of Topped Canadian asphaltenic Crude (DMS 29.88 wt. %, 80° C.): 8 mPa s | Viscosity of Topped Canadian asphaltenic Crude (DMS 39.61 wt. %, 5° C.): 23 mPa s | Viscosity of Topped Canadian asphaltenic Crude (DMS 39.61 wt. %, 10° C.): 20 mPa s | Viscosity of Topped Canadian asphaltenic Crude (DMS 39.61 wt. %, 20° C.): 14 mPa s | Viscosity of Topped Canadian asphaltenic Crude (DMS 39.61 wt. %, 40° C.): 8 mPa s | Viscosity of Topped Canadian asphaltenic Crude (DMS 39.61 wt. %, 60° C.): 6 mPa s | Viscosity of Topped Canadian asphaltenic Crude (DMS 39.61 wt. %, 80° C.): 4 mPa s
SMILES: CSC [Dimethyl Sulfide, dimethyl sulfide]
